# Test results reported in ChEMBL document CHEMBL1140622, “Structure based de novo design of novel glycogen synthase kinase 3 inhibitors” (Bioorg Med Chem, 2007).
# Assay: Inhibition of GSK3
SMILES,IC50 [nM],Log IC50
O=C1NC(=O)C(c2cnc3cccnn23)=C1c1cn2c3c(cccc13)CN(C(=O)N1CCCCC1)CC2 [BISARYLMALEIMIDE 1],0.7,
O=C1Nc2ccc(Br)cc2/C1=C1/Nc2ccccc2/C1=N\O [INDIRUBIN 2],5,
O=C1NC(=O)C2=C1c1cn(c3ccccc13)CCOCCOCCOCCn1cc2c2cccnc21 [INDOLYLYLMALEIMIDE 1],17,
CN(C)CCCn1cc(C2=C(c3c[nH]c4ccccc34)C(=O)NC2=O)c2ccccc21 [GF-109203],190,
O=C1NC(=O)C2=C1c1cn(c3ccccc13)CCOCCOCCOCCn1cc2c2ccccc21 [INDOLYLYLMALEIMIDE 2],22,
COc1cccc(Nc2nccc(-c3cnn4ncccc34)n2)c1 [PYRAZOLOPYRIDAZINE 1],10,
CC(=O)NC1=NC(=O)/C(=C2\CCNC(=O)c3c2cc(Br)n3C(C)=O)N1 [HYMENIALDISINE 2],130,
CN1CCN(c2cnc(NCCNc3ccc([N+](=O)[O-])c(N)n3)nc2-c2ccc(Cl)cc2Cl)C(=O)C1,4,
O=C1NC(=O)C(c2cncc3ccoc23)=C1c1cn2c3c(cccc13)CN(C(=O)N1CCOCC1)CC2 [BISARYLMALEIMIDE 2],0.8,
COc1cccc(-n2ncc3c(N/N=C/c4ccc(S(C)(=O)=O)cc4)ncnc32)c1 [PYRAZOLOPYRIMIDINE 2],,-8.6
CC(=O)O/N=C1/C(=C2/C(=O)Nc3cc(Cl)c(Cl)cc32)Nc2ccccc21 [INDIRUBIN 1],4,
COc1ccc(Nc2nccc(-c3cnn4ncccc34)n2)cc1OC [PYRAZOLOPYRIDAZINE 2],12,
CN(C)CCNC(=O)c1ccc(/C=N/Nc2ncnc3c2cnn3-c2cccc3[nH]cnc23)cc1 [PYRAZOLOPYRIMIDINE 1],,-8.8
